Active and inactive are the calls of the source. No cut-off for these calls is given here.
Experiments:
[1] = tested on: Rattus norvegicus; assay: Analgesic activity in Wistar Han rat assessed as inhibition of formalin-induced pain by measuring flexing duration in early phase at 2 mg/kg, ip administered 30 mins prior to formalin injection measured for first 15 mins after formalin injection; format: functional, organism-based
[2] = tested on: Rattus norvegicus; assay: Analgesic activity in Wistar Han rat assessed as inhibition of formalin-induced pain by measuring time spent licking injected paw in early phase at 2 mg/kg, ip administered 30 mins prior to formalin injection measured for first 15 mins after formalin injection; format: functional, organism-based
[3] = tested on: Rattus norvegicus; assay: Analgesic activity in Wistar Han rat assessed as inhibition of formalin-induced pain by measuring paw-jerk frequency in early phase at 2 mg/kg, ip administered 30 mins prior to formalin injection measured for first 15 mins after formalin injection; format: functional, organism-based
[4] = tested on: Rattus norvegicus; assay: Analgesic activity in Wistar Han rat assessed as inhibition of formalin-induced pain by measuring locomotor activities at 2 mg/kg, ip administered 30 mins prior to formalin injection measured after 45 mins by formalin test; format: functional, organism-based
[5] = tested on: Rattus norvegicus; assay: Analgesic activity in Wistar Han rat assessed as inhibition of formalin-induced pain by measuring locomotor activities at 2 mg/kg, ip administered 30 mins prior to formalin injection measured after 30 mins by formalin test; format: functional, organism-based
[6] = tested on: Rattus norvegicus; assay: Analgesic activity in Wistar Han rat assessed as inhibition of formalin-induced pain by measuring paw-jerk frequency in early phase at 2 mg/kg, ip administered 30 mins prior to formalin injection measured for 15 to 60 mins after formalin injection; format: functional, organism-based
[7] = tested on: Rattus norvegicus; assay: Analgesic activity in Wistar Han rat assessed as inhibition of formalin-induced pain by measuring flexing duration in late phase at 2 mg/kg, ip administered 30 mins prior to formalin injection measured for 15 to 60 mins after formalin injection
[8] = tested on: Rattus norvegicus; assay: Analgesic activity in Wistar Han rat assessed as inhibition of formalin-induced pain by measuring time spent licking injected paw in late phase at 2 mg/kg, ip administered 30 mins prior to formalin injection measured for 15 to 60 mins after formalin injection
[9] = biological target: Glutamate receptor ionotropic, kainate 1 (Rattus norvegicus, UniProt P22756); assay: Displacement of [3H]SYM2081 from recombinant homomeric rat GluK1 receptor expressed in baculovirus infected Sf9 insect cell membranes
Glutamate receptor ionotropic, kainate 1, sequence (P22756 whole entry): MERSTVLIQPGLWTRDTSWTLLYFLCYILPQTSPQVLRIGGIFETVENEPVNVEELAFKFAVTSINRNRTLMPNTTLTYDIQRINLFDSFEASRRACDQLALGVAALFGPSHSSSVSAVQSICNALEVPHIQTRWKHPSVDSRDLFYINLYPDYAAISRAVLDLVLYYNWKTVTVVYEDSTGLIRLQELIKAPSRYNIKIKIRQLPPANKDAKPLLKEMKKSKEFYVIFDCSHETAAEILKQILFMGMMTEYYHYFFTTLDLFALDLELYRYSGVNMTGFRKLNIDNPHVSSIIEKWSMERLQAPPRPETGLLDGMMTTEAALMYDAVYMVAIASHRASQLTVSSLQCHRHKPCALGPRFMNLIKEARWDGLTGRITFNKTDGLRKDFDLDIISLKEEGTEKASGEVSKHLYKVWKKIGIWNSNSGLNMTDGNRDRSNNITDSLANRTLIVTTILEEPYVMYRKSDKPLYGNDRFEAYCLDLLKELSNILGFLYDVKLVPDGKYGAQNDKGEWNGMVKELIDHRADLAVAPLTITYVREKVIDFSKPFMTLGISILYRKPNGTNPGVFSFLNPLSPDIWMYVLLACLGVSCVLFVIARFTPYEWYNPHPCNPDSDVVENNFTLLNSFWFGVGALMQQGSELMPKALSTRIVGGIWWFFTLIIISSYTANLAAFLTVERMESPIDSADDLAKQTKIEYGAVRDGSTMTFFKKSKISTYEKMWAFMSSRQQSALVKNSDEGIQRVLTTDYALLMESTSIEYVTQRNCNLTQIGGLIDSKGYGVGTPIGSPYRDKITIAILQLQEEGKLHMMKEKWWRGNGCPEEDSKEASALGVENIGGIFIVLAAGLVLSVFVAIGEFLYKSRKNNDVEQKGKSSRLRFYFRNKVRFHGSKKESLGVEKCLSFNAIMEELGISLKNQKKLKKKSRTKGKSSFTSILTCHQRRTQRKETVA

[10] = biological target: Glutamate receptor ionotropic, kainate 2 (Rattus norvegicus, UniProt P42260); assay: Displacement of [3H]SYM2081 from recombinant homomeric rat GluK2 receptor expressed in baculovirus infected Sf9 insect cell membranes
Glutamate receptor ionotropic, kainate 2, sequence (P42260 whole entry): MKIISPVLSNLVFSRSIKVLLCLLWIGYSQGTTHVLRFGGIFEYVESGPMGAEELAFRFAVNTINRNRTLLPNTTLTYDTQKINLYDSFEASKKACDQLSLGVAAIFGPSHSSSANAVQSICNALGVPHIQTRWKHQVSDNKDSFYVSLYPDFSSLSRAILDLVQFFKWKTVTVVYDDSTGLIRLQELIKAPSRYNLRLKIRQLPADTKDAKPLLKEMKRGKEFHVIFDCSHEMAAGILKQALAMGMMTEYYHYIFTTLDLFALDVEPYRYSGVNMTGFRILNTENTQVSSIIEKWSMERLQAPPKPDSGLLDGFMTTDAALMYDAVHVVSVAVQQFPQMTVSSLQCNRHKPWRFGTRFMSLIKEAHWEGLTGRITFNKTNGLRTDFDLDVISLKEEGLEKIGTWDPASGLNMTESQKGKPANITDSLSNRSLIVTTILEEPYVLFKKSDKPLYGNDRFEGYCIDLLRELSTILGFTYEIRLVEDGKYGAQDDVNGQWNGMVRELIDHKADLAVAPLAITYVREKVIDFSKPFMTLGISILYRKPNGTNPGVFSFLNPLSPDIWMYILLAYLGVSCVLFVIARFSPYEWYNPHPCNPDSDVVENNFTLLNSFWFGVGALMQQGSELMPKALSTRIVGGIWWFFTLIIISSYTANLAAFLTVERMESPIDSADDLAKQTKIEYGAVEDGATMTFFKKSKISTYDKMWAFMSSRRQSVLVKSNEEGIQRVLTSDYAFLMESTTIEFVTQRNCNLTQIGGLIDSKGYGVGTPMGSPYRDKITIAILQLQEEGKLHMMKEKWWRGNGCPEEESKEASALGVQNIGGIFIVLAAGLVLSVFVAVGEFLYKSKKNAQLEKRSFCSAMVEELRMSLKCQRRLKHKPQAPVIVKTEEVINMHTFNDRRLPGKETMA

[11] = biological target: Glutamate receptor ionotropic, kainate 3 (Rattus norvegicus, UniProt P42264); assay: Displacement of [3H]SYM2081 from recombinant homomeric rat GluK3 receptor expressed in baculovirus infected Sf9 insect cell membranes
Glutamate receptor ionotropic, kainate 3, sequence (P42264 whole entry): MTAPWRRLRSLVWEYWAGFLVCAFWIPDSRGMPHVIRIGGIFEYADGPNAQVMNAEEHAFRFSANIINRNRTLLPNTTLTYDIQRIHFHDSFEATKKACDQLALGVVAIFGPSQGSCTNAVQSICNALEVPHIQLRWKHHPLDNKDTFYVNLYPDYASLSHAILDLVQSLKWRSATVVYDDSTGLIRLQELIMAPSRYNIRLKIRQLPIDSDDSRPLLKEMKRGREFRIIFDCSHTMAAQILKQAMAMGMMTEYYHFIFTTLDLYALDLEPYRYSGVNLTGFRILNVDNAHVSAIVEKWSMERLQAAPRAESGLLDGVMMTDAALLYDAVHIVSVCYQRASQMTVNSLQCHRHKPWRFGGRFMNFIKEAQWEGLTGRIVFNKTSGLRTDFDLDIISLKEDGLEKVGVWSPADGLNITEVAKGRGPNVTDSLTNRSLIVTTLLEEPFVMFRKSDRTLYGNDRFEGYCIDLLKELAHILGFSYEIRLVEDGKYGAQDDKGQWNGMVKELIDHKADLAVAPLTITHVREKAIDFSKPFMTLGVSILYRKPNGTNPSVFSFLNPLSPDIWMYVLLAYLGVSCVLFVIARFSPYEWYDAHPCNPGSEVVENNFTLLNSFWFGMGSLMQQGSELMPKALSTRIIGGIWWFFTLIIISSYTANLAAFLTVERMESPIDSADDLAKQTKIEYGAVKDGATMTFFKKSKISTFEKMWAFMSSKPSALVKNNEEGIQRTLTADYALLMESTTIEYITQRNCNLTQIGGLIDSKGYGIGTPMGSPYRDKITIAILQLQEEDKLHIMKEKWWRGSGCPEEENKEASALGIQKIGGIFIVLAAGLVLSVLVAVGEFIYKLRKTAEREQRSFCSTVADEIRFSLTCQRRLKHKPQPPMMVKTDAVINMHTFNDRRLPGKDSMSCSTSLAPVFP

[12] = biological target: Glutamate receptor 2 (Rattus norvegicus, UniProt P19491); assay: Displacement of [3H]AMPA from recombinant homomeric rat GluA2 receptor expressed in baculovirus infected Sf9 insect cell membranes
Glutamate receptor 2, sequence (P19491 whole entry): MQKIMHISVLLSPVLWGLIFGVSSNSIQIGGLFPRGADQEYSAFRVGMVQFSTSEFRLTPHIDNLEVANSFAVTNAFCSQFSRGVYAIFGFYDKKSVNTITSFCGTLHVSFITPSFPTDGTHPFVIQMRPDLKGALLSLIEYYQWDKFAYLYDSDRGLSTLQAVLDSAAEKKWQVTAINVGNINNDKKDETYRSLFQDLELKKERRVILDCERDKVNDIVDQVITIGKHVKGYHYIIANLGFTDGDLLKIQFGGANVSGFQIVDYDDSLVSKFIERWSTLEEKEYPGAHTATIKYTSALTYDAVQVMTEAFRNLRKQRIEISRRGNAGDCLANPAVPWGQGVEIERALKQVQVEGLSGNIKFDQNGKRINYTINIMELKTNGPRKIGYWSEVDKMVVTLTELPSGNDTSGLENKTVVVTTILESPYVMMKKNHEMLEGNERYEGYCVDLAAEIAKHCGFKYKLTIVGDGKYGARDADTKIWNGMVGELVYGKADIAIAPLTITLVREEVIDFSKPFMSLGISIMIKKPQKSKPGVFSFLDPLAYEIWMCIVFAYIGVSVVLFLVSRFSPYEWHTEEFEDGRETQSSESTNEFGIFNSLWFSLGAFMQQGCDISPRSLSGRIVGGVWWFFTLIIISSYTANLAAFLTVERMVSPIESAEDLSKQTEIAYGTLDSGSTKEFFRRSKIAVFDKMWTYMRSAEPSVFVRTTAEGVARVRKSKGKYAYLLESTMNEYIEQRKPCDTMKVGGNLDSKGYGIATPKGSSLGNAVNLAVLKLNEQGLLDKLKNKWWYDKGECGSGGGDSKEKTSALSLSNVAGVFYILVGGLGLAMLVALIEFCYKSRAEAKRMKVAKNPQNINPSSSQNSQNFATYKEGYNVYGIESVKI

[13] = organism: Rattus norvegicus; assay: Selectivity ratio of Ki for recombinant homomeric rat GluK3 expressed in Sf9 insect cells to Ki for recombinant homomeric rat GluK1 expressed in Sf9 insect cells
[14] = Permeability of compound in rat brain at 100 uM perfused for 60 secs by LC-MS analysis; format: ADME, tissue-based; settings: not told, other: brain perfusion, read-out: permeability
[15] = organism: Rattus norvegicus; assay: Selectivity ratio of Ki for recombinant homomeric rat GluK3 expressed in Sf9 insect cells to Ki for recombinant homomeric rat GluA2 expressed in Sf9 insect cells

Papp at 1 min, 100 µM [14] [×10⁻⁶ cm/s] | Structure (SMILES) | Activity [1] | Activity [2] | Activity [3] | Activity [4] | Activity [5] | Activity [6] | Activity [7] | Activity [8] | Ki [9] [µM] | Ki [10] [µM] | Ki [11] [µM] | Ki [12] [µM] | Ratio Ki [13] | Ratio Ki [15]
 | N[C@@H](Cn1c(=O)[nH]c(=O)c2cscc21)C(=O)O | Active | Active | Active | Active | Active | Active | Active | Active |  |  |  |  |  | 
 | N[C@@H](Cn1c2c(c(=O)[nH]c1=O)COC2)C(=O)O |  |  |  |  |  |  |  |  | 0.586 | > 1000 | 111 |  |  | 
 | N[C@@H](Cn1c2c(c(=O)[nH]c1=O)CCC2)C(=O)O |  |  |  |  |  |  |  |  |  | > 1000 |  |  |  | 
 | N[C@@H](Cn1c(=O)n(Cc2nnc(O)o2)c(=O)c2cscc21)C(=O)O |  |  |  |  |  |  |  |  | 36 | > 1000 | 100 | > 100 | > 3 | 
0.59 | N[C@@H](Cn1c(=O)n(Cc2ccsc2C(=O)O)c(=O)c2cscc21)C(=O)O | Active | Active | Active |  | Active | Active | Active | Active |  |  |  |  |  | 
 | N[C@@H](Cn1c2c(c(=O)[nH]c1=O)CNC2)C(=O)O |  |  |  |  |  |  |  |  | 0.869 | > 1000 | 18.1 | 2.37 | 21 | 8
 | CN1Cc2c(n(C[C@H](N)C(=O)O)c(=O)[nH]c2=O)C1 |  |  |  |  |  |  |  |  | 0.356 | > 1000 | 2.15 | 1.99 | 6 | 1

Source: ChEMBL document CHEMBL4043288, “( S)-2-Amino-3-(5-methyl-3-hydroxyisoxazol-4-yl)propanoic Acid (AMPA) and Kainate Receptor Ligands: Further Exploration of Bioisosteric Replacements and Structural and Biological Investigation” (J Med Chem, 2018)
